Key:
[1] = tested on: Δvfr strain expressing pentaCys Vfr; test: Quorum sensing (LasB production) in Δvfr strain complemented with pentaCys Vfr; assay type: cell-based, Pseudomonas aeruginosa
[2] = tested on: P. aeruginosa; test: Growth of P. aeruginosa; assay type: cell-based, Pseudomonas aeruginosa; conditions: low micromolar concentrations
[3] = tested on: pqs quorum-sensing system; test: PA01 pqsA-gfp reporter assay; assay type: cell-based, Pseudomonas aeruginosa; conditions: various micromolar concentrations
[4] = biological target: wild-type Vfr binding to the promoter of lasR (plasR) (Pseudomonas aeruginosa, UniProt P55222); test: Electrophoretic mobility shift assay (EMSA), wild-type Vfr; conditions: increasing concentrations
Sequence of wild-type Vfr binding to the promoter of lasR (plasR) (P55222 whole entry, the tested form may be a part): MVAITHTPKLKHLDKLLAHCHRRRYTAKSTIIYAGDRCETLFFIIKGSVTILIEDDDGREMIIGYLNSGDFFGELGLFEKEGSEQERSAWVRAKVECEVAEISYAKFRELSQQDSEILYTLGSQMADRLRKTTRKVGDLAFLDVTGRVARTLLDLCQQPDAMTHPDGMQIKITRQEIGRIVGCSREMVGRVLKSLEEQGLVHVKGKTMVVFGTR
Source text: (§1) It depicts auranofin inhibiting the binding of wild-type Vfr, but not of the mutant pentaCys variant, to a DNA fragment containing the lasR promoter sequence (plasR) in a dose dependent manner.
(§2) It was hypothesized that auranofin inhibits Vfr, a global response regulator dependent on cyclic-AMP, which is known to control Type III secretion, Type IV pilus assembly and the quorum sensing networks (las and rhl). This was validated using electrophoretic mobility shift assays (EMSA) (see FIG. 6). Based on the EMSA, it can be seen that the binding of wild-type Vfr to the promoter of lasR (plasR), was inhibited by treatment with auranofin. In contrast, the binding of mutant Vfr proteins (C38S/C97S or C38S/C183S) to the same DNA fragment was not inhibited by auranofin.

[5] = tested on: rhl quorum-sensing system; test: PA01 rhlA-gfp reporter assay; assay type: cell-based, Pseudomonas aeruginosa; conditions: various micromolar concentrations
[6] = tested on: pyocyanin; test: Pyocyanin levels in culture supernatants (absorbance at 691 nm); assay type: cell-based, Pseudomonas aeruginosa; conditions: culture supernatants after 7 hours of treatment, various micromolar concentrations
Method: Pyocyanin levels were determined via absorbance at 691 nm.

[7] = tested on: elastase (LasB); test: Elastase activity in culture supernatants (commercial elastase activity kit); assay type: cell-based, Pseudomonas aeruginosa; conditions: culture supernatants after 7 hours of treatment, various micromolar concentrations
Method: LasB levels were measured using a commercial elastase activity kit.

[8] = tested on: rhamnolipids; test: Rhamnolipid levels in culture supernatants (MRM mass spectrometry); assay type: cell-based, Pseudomonas aeruginosa; conditions: culture supernatants after 7 hours of treatment, various micromolar concentrations
Method: Rhamnolipid levels were determined using multiple reaction monitoring (MRM) mass spectrometry.

[9] = tested on: P. aeruginosa proteome; test: Proteomic analysis of auranofin-treated cultures; assay type: cell-based, Pseudomonas aeruginosa; conditions: proteome in presence or absence of auranofin
[10] = tested on: P. aeruginosa (PA01); test: Twitching motility assay; assay type: cell-based, Pseudomonas aeruginosa; conditions: 10 μM
Source text: (§3) The top-left and bottom-left petri dishes contain P. aeruginosa (PA01) and PA01-lasIrhlI, respectively, serving as the controls.

[11] = tested on: P. aeruginosa (PA01); test: Swarming motility assay; assay type: cell-based, Pseudomonas aeruginosa; conditions: 10 μM
Source text: as §3

[12] = tested on: lasA, rhlA, pqsA, exsC, pscL, pilM and pilY genes; test: Quantitative RT-PCR of RNA levels; assay type: cell-based, Pseudomonas aeruginosa
[13] = tested on: P. aeruginosa (PA01); test: Swimming motility assay; assay type: cell-based, Pseudomonas aeruginosa; conditions: 10 μM
[14] = tested on: mutant Vfr proteins (C38S/C97S or C38S/C183S) binding to plasR; test: Electrophoretic mobility shift assay (EMSA), mutant Vfr; parameters: species or system Pseudomonas aeruginosa; conditions: increasing concentrations
Source text: as §1, §2

[15] = tested on: las quorum-sensing system; test: PA01 lasB-gfp cell-based fluorescence reporter assay; parameters: species or system Pseudomonas aeruginosa; conditions: various micromolar concentrations
Source text: The inhibition of quorum sensing has been observed by the inventors during a chemical screen set up to look for small-molecule inhibitors of quorum sensing in P. aeruginosa. The assay used is a cell-based fluorescence assay (PA01 lasB-gfp) in which the expression of GFP is controlled by a las-regulated promoter. Inhibition of induction of the las quorum-sensing system by a small molecule is marked by the reduction in GFP signal relative to an untreated sample.

[16] = tested on: P. aeruginosa biofilms; test: Biofilm treatment (GFP-expressing cells, propidium iodide staining, imaging); assay type: cell-based, Pseudomonas aeruginosa
Method: FIG. 8 depicts the effects of auranofin, and its combination either with colistin or tobramycin, on the morphology of biofilms formed using P. aeruginosa cells expressing green fluorescent protein (GFP). DNA from dead cells were labeled with propidium iodide. Auranofin was added either prior to (lower panels) or after formation of the biofilm (24 h before imaging, middle panels). Colistin and tobramycin were added after formation of the biofilm (24 h before imaging, middle panels). […] Scale bar: 5 μm.
Quorum sensing inhibitors are known to affect biofilm morphology and structure. Since auranofin inhibits Vfr, which in turn affects quorum sensing, the effects of auranofin treatment on P. aeruginosa biofilms were investigated.

[17] = tested on: Δvfr strain expressing pentaCys Vfr; test: Twitching motility in Δvfr strain complemented with pentaCys Vfr; assay type: cell-based, Pseudomonas aeruginosa

| Compound | QS (LasB production) in the strain expressing the pentaCys Vfr [1] | effect on growth of P. aeruginosa [2] | induction of pqs (PA01 pqsA-gfp) quorum-sensing network, RFU/OD against time [3] | binding of wild-type Vfr to the promoter of lasR (plasR) [4] | induction of rhl (PA01 rhlA-gfp) quorum-sensing network, RFU/OD against time [5] | level of virulence factor pyocyanin [6] | level of virulence factor LasB (elastase activity) [7] | level of virulence factor rhamnolipids [8] | cellular levels of proteins controlled by quorum sensing [9] | levels of proteins involved in Type III secretion and formation of the Type IV pilus [9] | twitching motility [10] | swarming motility [11] | RNA levels of quorum-sensing regulated, Type III secretion and Type IV pilus assembly genes [12] | swimming motility [13] | binding of mutant Vfr proteins to the same DNA fragment (plasR) [14] | induction of las (PA01 lasB-gfp) quorum-sensing network, RFU/OD against time [15] | biofilm morphology disruption and killing, together with colistin ([16]; auranofin together with colistin) | biofilm morphology disruption and killing, together with tobramycin ([16]; auranofin together with tobramycin) | effect on biofilm morphology and cell death ([16]; auranofin treatment prior to biofilm formation) | twitching in the strain expressing the pentaCys Vfr [17] |
| --- | --- | --- | --- | --- | --- | --- | --- | --- | --- | --- | --- | --- | --- | --- | --- | --- | --- | --- | --- | --- |
| CC(=O)OC[C@H]1O[C@@H]([S-])[C@H](OC(C)=O)[C@@H](OC(C)=O)[C@@H]1OC(C)=O.CCP(CC)CC.[Au+] [auranofin] | still able to inhibit | not affecting growth | completely inhibiting | inhibited | completely inhibiting | reduced | reduced | reduced | down-regulated | down-regulation | inhibit | inhibit | generally down-regulated | does not inhibit | not inhibited | completely inhibiting | synergistic effects | synergistic effects | substantial cell death and the loss of the characteristic morphology of normal biofilms | still able to inhibit |
| sodium aurothiomalate |  |  |  |  |  |  |  |  |  |  |  |  |  |  |  | completely inhibiting |  |  |  |  |
| OC[C@H]1O[C@H]([S-])[C@H](O)[C@@H](O)[C@@H]1O.[Au+] [aurothioglucose] |  |  |  |  |  |  |  |  |  |  |  |  |  |  |  | completely inhibiting |  |  |  |  |

Source: patent US10258640B2, “Method of inhibiting quorum sensing in Pseudomonas aeruginosa” (priority 2015, dated 2019)
